{"source": "patent US20250282734A1", "about": "(Bayer Aktiengesellschaft, priority 2021, published 2025)", "key": {"[1]": {"assay": "Determination of exposure in rat after intragastric administration (Example 13)", "type": "in vivo", "settings": "for AUC(0-t): female, plasma, po, read-out: AUC(0-tlast); for AUC(0-t) / AUC(0-tlast)norm / AUC(0-tlast): free acid in rat plasma", "experimental": "Determination of exposure after intragastric application of test compounds was performed in female conscious rats with a body weight of 0.2 kg (minimum) to 0.25 kg (maximum). The test compounds were applied as bolus via intragastric probe to unfed female rats in solution or suspension in the vehicle ethanol/solutol/water (v/v/v 10/40/50).\nAt the indicated timepoints between 8 min and 24 h after dosing, 150 μl blood were sampled via a catheter from the vena jugularis. The samples were treated with K-EDTA as anticoagulant and stored cooled until further processing (refrigerator, 4° C.). The samples were centrifuged (15 min, 3000 rpm), then an aliquot of 100 μL was taken from the supernatant (plasma), precipitated by addition of 400 μL cold acetonitrile or methanol (abs.) and frozen at −20° C. over night. The samples were centrifuged (15 min, 3000 rpm), then 150 μL of the clear supernatant were taken for analytical testing. Analytics were performed using an Agilent 1200 HPLC-system with LCMS/MS detection.\nThe applied dose of cholinate according to the invention was adjusted as compared to free acid according to the difference in molecular weight. The resulting equivalent doses were used for comparison."}, "[2]": {"assay": "Thermodynamic stability of polymorphic form", "type": "physicochemical"}, "[3]": {"assay": "Dissolution profile, flow through cell in FeSSIF / FaSSIF (Example 16)", "type": "physicochemical", "settings": "micronized samples", "experimental": "Prior to the measurements, the samples were micronized using a jet mill (MC DECJET 30) under nitrogen, with a pressure of 4.5 Bar for the injector and 4.0 Bar grinding pressure.\nDissolution rates of the drug substance were then determined using a flow through cell (FTC) from Sotax. All experiments were conducted in triplicates.\nThen, the respective medium (FaSSIF or FeSSIF) was pumped through the cell with a pump rate of 2 mL/min for a total time of 14 minutes, resulting in a total volume of 28 mL. This volume was collected in time increments of 2 minutes, leading to 7 collected fractions with 4 mL each. The drug substance concentration of each fraction was determined by HPLC (external standard)."}, "[4]": {"assay": "Hygroscopy, dynamic vapour sorption (DVS) isotherms (Example 15)", "type": "physicochemical", "settings": "for Change in mass [%], Desorption / Change in mass [%], Sorption: listed as Cholinate Form A", "experimental": "Water sorption isotherms were determined using a DVS Resolution gravimetric sorption analyzer (London, UK), or a DVS Intrinsic instrument (Surface measurement Systems). The sample was dried for 1000 minutes at 0% relative humidity (R.H.). Afterwards the dry weight was recorded. […] The equilibrium criterion for each relative humidity set point was 0.002% per minute relative mass change as a function of time."}, "[5]": {"assay": "Solubility of cholinate vs free acid and other salts, shake-flask method (Example 14)", "type": "physicochemical", "settings": "aqueous solvents, pH 4.5 and above, FeSSIF and FaSSIF", "experimental": "(§1) Preparation of FaSSIF (Fasted State Simulated Intestinal Fluid) blank solution: 4.2 g NaOH, 44.7 g NaH2PO4*2 H2O, and 61.86 g NaCl were dissolved in approximately 9.5 L demineralized water. Then, the pH of this solution was adjusted to 6.50+/−0.05 using HCl or NaOH, respectively. In the last step, the final volume was adjusted to 10.0 L by the addition of demineralized water.\nPreparation of the final FaSSIF solution: 4.48 g SIF (Simulated Intestinal Fluids) powder (provider: biorelevant.com, Product code: FFF01 (May 2022)) were dissolved in approximately 500 mL FaSSIF blank solution, then the final volume was adjusted to 2.0 L by the addition of FaSSIF blank solution. After 2 hours, the solution was considered to be ready to use and was used within 48 hours.\nas §1, with “FeSSIF (Fed” for “FaSSIF (Fasted”, “40.4” for “4.2”, “118.74” for “44.7”, “NaCl,” for “NaH2PO4*2 H2O,”, “82.4 mL glacial acetic acid” for “61.86 g NaCl”, “5.00+/−0.05” for “6.50+/−0.05”\nPreparation of the final FeSSIF solution: 22.4 g SIF powder (provider: biorelevant.com, Product code: FFF01 (May 2022)) were dissolved in approximately 500 mL FeSSIF blank solution, then the final volume was adjusted to 2.0 L by the addition of FeSSIF blank solution. The solution was considered to be ready to use immediately after manufacturing and was used within 48 hours."}, "[6]": {"assay": "Solubility free acid vs. salt, shake-flask method (Example 12)", "type": "physicochemical"}}, "note": "Like-named read-outs stand apart in the source and are kept apart here. Marks after values point to notes of the source that are not given here."}
{"smiles": "O=C(O)c1cc(NC(=O)C2(c3ccc(C(F)(F)F)cc3F)CC2)ccc1-c1cnn(C2CCC2)c1", "note": "[cholinate, 2-hydroxy-N,N,N-trimethylethanaminium 2-(1-cyclobutyl-1H-pyrazol-4-yl)-5-[({1-[2-fluoro-4-(trifluoromethyl)phenyl]cyclopropyl}carbonyl)amino]benzoate]", "values": [{"measurement": "AUC(0-t)", "setting": "[1]; rat, 10 mg/kg, dose equiv. 10 mg/kg", "value": 60, "unit": "µg·h/mL"}, {"measurement": "AUC(0-t)", "setting": "[1]; rat, 248 mg/kg, dose equiv. 248 mg/kg", "value": 745, "unit": "µg·h/mL"}, {"measurement": "AUC(0-t)", "setting": "[1]; rat, 495 mg/kg, dose equiv. 495 mg/kg", "value": 1000, "unit": "µg·h/mL"}, {"measurement": "AUC(0-tlast)norm", "setting": "[1]; dose equiv. 10 mg/kg", "value": 6, "unit": "kg·h/L"}, {"measurement": "AUC(0-tlast)", "setting": "[1]; dose equiv. 30 mg/kg", "value": 146, "unit": "µg·h/mL"}, {"measurement": "AUC(0-tlast)norm", "setting": "[1]; dose equiv. 30 mg/kg", "value": 4.8, "unit": "kg·h/L"}, {"measurement": "AUC(0-tlast)", "setting": "[1]; dose equiv. 100 mg/kg", "value": 447, "unit": "µg·h/mL"}, {"measurement": "AUC(0-tlast)norm", "setting": "[1]; dose equiv. 100 mg/kg", "value": 4.5, "unit": "kg·h/L"}, {"measurement": "AUC(0-tlast)norm", "setting": "[1]; dose equiv. 248 mg/kg", "value": 3, "unit": "kg·h/L"}, {"measurement": "AUC(0-tlast)norm", "setting": "[1]; dose equiv. 495 mg/kg", "value": 2, "unit": "kg·h/L"}, {"measurement": "Increase of plasma exposure of free acid with dose", "setting": "[1]; rat, doses above 30 mg/kg, listed as cholinate salt", "value": "dose-proportional increase of exposure up to a dose of approximately 100 mg/kg"}, {"measurement": "Thermodynamic stability of the solid form", "setting": "[2]", "value": "thermodynamically stable at room temperature and at least up to 35 °C"}, {"measurement": "Dissolution profile, comparison in words", "setting": "[3]", "value": "better dissolution profile than the other salts"}, {"measurement": "Change in mass [%], Desorption", "setting": "[4]; 0% Relative humidity", "value": "−0.14", "unit": "%"}, {"measurement": "Change in mass [%], Sorption", "setting": "[4]; 0% Relative humidity", "value": 0.00, "unit": "%"}, {"measurement": "Change in mass [%], Desorption", "setting": "[4]; 10% Relative humidity", "value": 2.50, "unit": "%"}, {"measurement": "Change in mass [%], Sorption", "setting": "[4]; 10% Relative humidity", "value": 0.36, "unit": "%"}, {"measurement": "Change in mass [%], Desorption", "setting": "[4]; 20% Relative humidity", "value": 3.59, "unit": "%"}, {"measurement": "Change in mass [%], Sorption", "setting": "[4]; 20% Relative humidity", "value": 0.56, "unit": "%"}, {"measurement": "Change in mass [%], Desorption", "setting": "[4]; 30% Relative humidity", "value": 5.08, "unit": "%"}, {"measurement": "Change in mass [%], Sorption", "setting": "[4]; 30% Relative humidity", "value": 0.75, "unit": "%"}, {"measurement": "Change in mass [%], Desorption", "setting": "[4]; 40% Relative humidity", "value": 6.98, "unit": "%"}, {"measurement": "Change in mass [%], Sorption", "setting": "[4]; 40% Relative humidity", "value": 0.95, "unit": "%"}, {"measurement": "Change in mass [%], Desorption", "setting": "[4]; 50% Relative humidity", "value": 9.30, "unit": "%"}, {"measurement": "Change in mass [%], Sorption", "setting": "[4]; 50% Relative humidity", "value": 1.21, "unit": "%"}, {"measurement": "Change in mass [%], Desorption", "setting": "[4]; 60% Relative humidity", "value": 12.14, "unit": "%"}, {"measurement": "Change in mass [%], Sorption", "setting": "[4]; 60% Relative humidity", "value": 1.61, "unit": "%"}, {"measurement": "Change in mass [%], Desorption", "setting": "[4]; 70% Relative humidity", "value": 16.02, "unit": "%"}, {"measurement": "Change in mass [%], Sorption", "setting": "[4]; 70% Relative humidity", "value": 2.11, "unit": "%"}, {"measurement": "Change in mass [%], Desorption", "setting": "[4]; 80% Relative humidity", "value": 21.87, "unit": "%"}, {"measurement": "Change in mass [%], Sorption", "setting": "[4]; 80% Relative humidity", "value": 3.05, "unit": "%"}, {"measurement": "Change in mass [%], Desorption", "setting": "[4]; 90% Relative humidity", "value": 33.33, "unit": "%"}, {"measurement": "Change in mass [%], Sorption", "setting": "[4]; 90% Relative humidity", "value": 18.30, "unit": "%"}, {"measurement": "Change in mass [%], Desorption", "setting": "[4]; 95% Relative humidity", "value": 46.21, "unit": "%"}, {"measurement": "Change in mass [%], Sorption", "setting": "[4]; 95% Relative humidity", "value": 46.21, "unit": "%"}, {"measurement": "Hygroscopicity, comparison in words", "setting": "[4]; in particular at 30-50% relative humidity", "value": "less hygroscopic than the other salts"}, {"measurement": "DVS Dm @ 30% R.H. (Sorption)", "setting": "[4]; summarized results, 30% R.H.", "value": 0.8, "unit": "%"}, {"measurement": "DVS Dm @ 50% R.H. (Sorption)", "setting": "[4]; summarized results, 50% R.H.", "value": 1.2, "unit": "%"}, {"measurement": "DVS Dm @ 80% R.H. (Sorption)", "setting": "[4]; summarized results, 80% R.H.", "value": 3.1, "unit": "%"}, {"measurement": "aqueous solubility, comparison in words", "setting": "[5]", "value": "higher solubility than the amorphous or partially crystalline salts"}, {"measurement": "solubility", "setting": "[6]; 0.1M HCl, 25 °C, simulated gastric fluid, thermodynamic from solid, 0.1M HCl, 25° C., read-out: Solubility", "value": "< 1", "unit": "µg/mL"}, {"measurement": "solubility", "setting": "[6]; Acetone, 25° C.", "value": 412, "unit": "µg/mL"}, {"measurement": "solubility", "setting": "[6]; Acetonitrile, 25° C.", "value": 3797, "unit": "µg/mL"}, {"measurement": "solubility", "setting": "[6]; Ethanol, 25° C.", "value": ">12500", "unit": "µg/mL"}, {"measurement": "solubility", "setting": "[6]; PEG 400, 25° C.", "value": 19159, "unit": "µg/mL"}, {"measurement": "solubility", "setting": "[6]; Phosphate buffer pH 8, 25° C.", "value": 10798, "unit": "µg/mL"}, {"measurement": "solubility", "setting": "[6]; Solutol/Ethanol/Water (40/10/50 V/V/V), 25° C.", "value": ">35000", "unit": "µg/mL"}, {"measurement": "solubility", "setting": "[6]; Water, 25° C., stirred overnight", "value": ">12500** mg/L"}, {"measurement": "solubility", "setting": "[6]; acetate buffer, 25 °C, pH 4.5, aqueous buffer, thermodynamic from solid, Acetate buffer pH 4.5, 25° C., read-out: Solubility", "value": 2, "unit": "µg/mL"}, {"measurement": "pH of the clear solution", "setting": "[6]; solubility test in water, pH of water before stirring: 5.57", "value": "**pH of the clear solution: 8.32, pH of water before stirring: 5.57"}]}
